What is called solubility (kinetic) is solubility judged after dilution from a stock solution rather than from solid.

Results on 51 compounds are retold here after PubChem BioAssay AID1996.

The structures appear in SMILES notation. Values after ≈ are worked out from the molar mass of the structure shown. Where only a bound is given, the exact number is not on record here.

The conditions of this series: buffer; pH 7.4; 200.0 µM.
In turn, `O=c1[nH]c2ccc(NS(=O)(=O)c3ccc(F)c(Cl)c3)cc2[nH]1` returned a solubility (kinetic) of 7.5 µg/mL (≈ 21.9 µM).

Consider `N#Cc1c(NCc2ccccc2)ccnc1Cl`, for which the kinetic solubility was 20.2 µg/mL (≈ 82.9 µM).

With `COc1ccccc1NC(=O)Nc1ccc(CC#N)cc1`, the kinetic solubility came to 1.4 µg/mL (≈ 4.98 µM).

In the case of `CC(=O)c1ccc(OCCOc2ccc([N+](=O)[O-])cc2)cc1`, the solubility (kinetic) is 3.7 µg/mL (≈ 12.3 µM).

Compound `COc1ccc(N2CCN(C(=O)c3cc4c(s3)CCCCC4)CC2)cc1` had a kinetic solubility of 5.3 µg/mL (≈ 14.3 µM).

For `O=C(COC(=O)C1=Cc2ccccc2OC1)NCc1ccco1`, the solubility (kinetic) stood at 5.6 µg/mL (≈ 17.9 µM).

Compound `Clc1ccc(N=c2ssnc2Cl)nc1` returned a kinetic solubility of 1 µg/mL (≈ 3.79 µM).

`COC(=O)C1CCN(CC(=O)NC(=O)Nc2ccccc2F)CC1` yielded a solubility (kinetic) greater than 50.6 µg/mL.

The compound `Cc1noc(C)c1C(=O)OCC(=O)Nc1c(F)cccc1F` had a solubility (kinetic) of 24 µg/mL (≈ 77.4 µM).

Take `O=C(CNC(=O)c1ccccc1)NCCCSc1ccccc1`: the solubility (kinetic) was determined as 25.2 µg/mL (≈ 76.7 µM).

Regarding `NC(=O)C[C@H](NC(=O)c1ccc(Cl)cc1)C(=O)OCc1ccccc1`, the solubility (kinetic) was greater than 54.1 µg/mL.

The compound `CCOC(=O)/C(C(=Nc1ccccc1)Nc1ccccc1)=C(\C)O` returned a kinetic solubility of 29.5 µg/mL (≈ 90.9 µM).

`Cn1cccc1C(=O)OCC(=O)NC1CCS(=O)(=O)C1` (stereo unspecified) returned a kinetic solubility greater than 45 µg/mL.

The compound `O=P([O-])(CN1CCCCCC1)C1Cc2ccccc2C1` displayed a kinetic solubility of 43.7 µg/mL.

For `NC(=O)c1ccc(NC(=O)CSC(=O)c2ccccc2)cc1`, the solubility (kinetic) was found to be 16.4 µg/mL (≈ 52.2 µM).

In turn, `CC1CCN(C2(O)C(=O)Nc3ccc(Cl)cc32)CC1` (stereo unspecified) registered a kinetic solubility greater than 42.1 µg/mL.

The compound `O=C(CN1CCN(Cc2ccccc2F)C1=O)NC1CCCC1` had a solubility (kinetic) greater than 47.9 µg/mL.

`COc1cccc(C=N[C@@H](CO)[C@@H](O)c2ccc([N+](=O)[O-])cc2)c1O` yielded a solubility (kinetic) of 50.6 µg/mL (≈ 146 µM).

For the compound `CC(C)CN1C(=O)c2ccc(NC(=O)C3CC3)cc2C1=O`, the solubility (kinetic) turned out to be 0.5 µg/mL (≈ 1.75 µM).

In turn, `O=C(CNC(=O)c1ccco1)N/N=C/c1ccc(C(=O)O)cc1` registered a solubility (kinetic) greater than 47.3 µg/mL.

In the case of `COc1cc(C2NC(=O)NC(C)=C2[N+](=O)[O-])cc(OC)c1OC` (stereo unspecified), the solubility (kinetic) turned out to be 47.3 µg/mL (≈ 146 µM).

`COc1ccc(-c2nnc(SCC(=O)Nc3c(Cl)cc(Cl)cc3C(=O)O)o2)cc1` gave a solubility (kinetic) greater than 68.1 µg/mL.

Regarding `CCOc1ccc(C(=O)OC(C)CN2CCN(C)CC2)cc1.Cl` (stereo unspecified), the kinetic solubility was greater than 51.4 µg/mL.

In the case of `O=c1cc(-c2ccccc2)nc(Sc2ccc([N+](=O)[O-])cc2[N+](=O)[O-])[nH]1`, the solubility (kinetic) came to 3.3 µg/mL (≈ 8.91 µM).

For the compound `Cc1ccc(N2C(=O)CC(Sc3ncccn3)C2=O)cc1C` (stereo unspecified), the solubility (kinetic) is 27.7 µg/mL (≈ 88.4 µM).

`COC(=O)CC1C(=O)NC2CCCCC2N1C(=O)CCl` (stereo unspecified) returned a kinetic solubility greater than 45.4 µg/mL.

`Cc1cc(C)cc(NC(=O)C(C)N2C(=O)c3ccccc3C2=O)c1` (stereo unspecified) showed a solubility (kinetic) of 14.4 µg/mL (≈ 44.7 µM).

`Cc1cc(C(=O)COc2ccccc2C(N)=O)c(C)n1C`: the solubility (kinetic) is 2.5 µg/mL (≈ 8.73 µM).

For `O=C(CSc1nccn1-c1cccc(Cl)c1)NO`, the solubility (kinetic) was greater than 42.6 µg/mL.

As to `COc1ccc(C(=O)OCC(=O)N2CCN(C(=O)c3ccco3)CC2)cc1OC`, the kinetic solubility was greater than 60.4 µg/mL.

As to `O=[N+]([O-])c1ccccc1S(=O)(=O)N1CCSCC1`, the solubility (kinetic) was 34.2 µg/mL (≈ 119 µM).

On to `N/C(=N\OC(=O)c1ccccc1F)c1ccc([N+](=O)[O-])cc1`, for which the kinetic solubility came out at 2.3 µg/mL (≈ 7.58 µM).

`CC1CC(C)CN(C(=O)c2ccc3c(c2)OCCO3)C1` (stereo unspecified): the kinetic solubility is greater than 41.3 µg/mL.

Take `CN(C)C(CNc1ncccn1)c1ccccc1` (stereo unspecified): the kinetic solubility turned out to be 32.6 µg/mL (≈ 135 µM).

On to `Cc1cc(Sc2ccc([N+](=O)[O-])cn2)ccc1Br`, for which the solubility (kinetic) is less than 0.3 µg/mL.

As to `CCOC(=O)/C(O)=C(\C#N)c1nc2ccccc2[nH]1`, the solubility (kinetic) is greater than 38.6 µg/mL.

In turn, `Cc1cc(C)cc(N2C(=O)CCN(Cc3ccccc3)C2=O)c1` had a solubility (kinetic) of 38 µg/mL (≈ 123 µM).

Turning to `CC1CC(C)CN(c2ccc([N+](=O)[O-])nc2)C1` (stereo unspecified), the kinetic solubility was 28.6 µg/mL (≈ 122 µM).

In turn, `O=C(COC(=O)COc1ccc(Cl)cc1)NC1CCCCCC1` yielded a solubility (kinetic) of 8.1 µg/mL (≈ 23.8 µM).

The compound `COCC(=O)OC/C(O)=C(\C#N)c1nc2ccccc2[nH]1` gave a solubility (kinetic) greater than 43.1 µg/mL.

Compound `CCCOc1ccc(-c2nc(N3CCN(C)CC3)c3ccccc3n2)cc1` showed a kinetic solubility of 14.5 µg/mL (≈ 40 µM).

`Cc1cc(C)c(S(=O)(=O)Nc2ccc3[nH]c(=O)[nH]c3c2)c(C)c1` returned a kinetic solubility of 2.8 µg/mL (≈ 8.45 µM).

In turn, `O=S(=O)(c1ccc(Cl)cc1Cl)N1CCCC1c1cccnc1` (stereo unspecified) came in with a solubility (kinetic) greater than 53.6 µg/mL.

Take `CCc1ccc(/C=C2/C(=O)NC(=O)N2C(C)=O)cc1`: the kinetic solubility was found to be 18.6 µg/mL (≈ 72 µM).

Consider `Cc1cccc(NC(=O)C(c2ccccc2Cl)N2CCOCC2)c1` (stereo unspecified), for which the kinetic solubility turned out to be 48.9 µg/mL (≈ 142 µM).

For the compound `O=C(Cc1c[nH]c2ccccc12)NCc1ccncc1`, the kinetic solubility was greater than 39.8 µg/mL.

Turning to `Cc1csc(NC(=O)c2ccc(Br)s2)n1`, the kinetic solubility came out at 24.9 µg/mL (≈ 82.1 µM).

`CCSC1=NN2CCS(=O)(=O)N=C2S1` showed a solubility (kinetic) greater than 37.7 µg/mL.

As to `CCc1ccccc1NC(=O)COC(=O)c1cccs1`, the solubility (kinetic) was found to be 2.9 µg/mL (≈ 10 µM).

Consider `COc1ccccc1CN1CCCCCC1.O=C(O)C(=O)O`, for which the kinetic solubility amounted to 40.8 µg/mL.

In turn, `O=C(O)/C=C/c1cn(-c2ccccc2)nc1-c1ccccc1` had a solubility (kinetic) greater than 43.5 µg/mL.
